Measured values from publication PMC2192565 (The Journal of Experimental Medicine, 1996).
Where no end group is shown, it is not given here.

Biological target: HLA-DRB1*0401 (Homo sapiens, UniProt P01903+P01911, A100K/A169T/F76Y/I96L/K127E/L162R/M171V/N62H/P40V/Q125Y/R42H/S133A/S149N/S66Y/V115G/V209L/W38E)
Assay: biochemical
Format: binding

Compound | IC50
QNILLSNAPQGPQFP [L65 Q] | 2 µM
QNQLLSNAPLGPQFP [I58 Q] | 6.77 µM
CC[C@H](C)[C@H](NC(=O)[C@H](CC(N)=O)NC(=O)[C@@H](N)CCC(N)=O)C(=O)N[C@@H](CC(C)C)C(=O)N[C@@H](CC(C)C)C(=O)N[C@@H](CO)C(=O)N[C@@H](CC(N)=O)C(=O)N[C@@H](C)C(=O)N1CCC[C@H]1C(=O)N[C@@H](CC(C)C)C(=O)NCC(=O)N1CCC[C@H]1C(=O)N[C@@H](CCC(N)=O)C(=O)N[C@@H](Cc1ccccc1)C(=O)N1CCC[C@H]1C(=O)O [Ty 56-70] | 0.225 µM
QNIFLSNAPLGPQFP [L59 F] | 0.321 µM
QNILVSNAPLGPQFP [L60 V] | 0.612 µM
QNILLSNVPLGPQFP [A63 V] | 0.012 µM
QNIVLSNAPLGPQFP [L59 V] | 0.095 µM
QNILQSNAPLGPQFP [L60 Q] | 0.75 µM
QNILLSNAVLGPQFP [P64 V] | 0.158 µM
DQSYLQDSDPDSFQD [Y449 Q] | 0.918 µM
QNVLLSNAPLGPQFP [I58 V] | 0.957 µM
QNFLLSNAPLGPQFP [I58 F] | 0.055 µM
DFSYLQDSDPDSFQD [Y449 F] | 1.47 µM
QNILLSNAPVGPQFP [L65 V] | 1.5 µM
QNILLSNAQLGPQFP [P64 Q] | 0.29 µM
QNILFSNAPLGPQFP [L60 F] | 1.1 µM
QNILLSNQPLGPQFP [A63 Q] | 7.76 µM
QNIQLSNAPLGPQFP [L59 Q] | 0.75 µM
DYSFLQDSDPDSFQD [Y451 F] | 0.563 µM
